Test results as given in patent US20230066011A1, “PYRROLOPYRIMIDINE DERIVATIVE, AND PHARMACEUTICAL COMPOSITION FOR PREVENTING OR TREATING PROTEIN KINASE-RELATED DISEASE COMPRISING SAME AS ACTIVE INGREDIENT” (VORONOI CO., LTD., priority 2019, published 2023).

Columns and labels:
human GST-CLK1 = molecular target: T1, human GST-CLK1 (Homo sapiens, UniProt P49759); assay: GST-CLK1 enzyme inhibition, ADP-Glo kinase assay; assay type: biochemical; conditions: ATP 10 μM, GST-CLK1 129-end
T1 construct: purified human GST-CLK1 (129-end, SignalChem) enzyme; purchased SignalChem
T1 sequence (P49759 129-484 limits assumed): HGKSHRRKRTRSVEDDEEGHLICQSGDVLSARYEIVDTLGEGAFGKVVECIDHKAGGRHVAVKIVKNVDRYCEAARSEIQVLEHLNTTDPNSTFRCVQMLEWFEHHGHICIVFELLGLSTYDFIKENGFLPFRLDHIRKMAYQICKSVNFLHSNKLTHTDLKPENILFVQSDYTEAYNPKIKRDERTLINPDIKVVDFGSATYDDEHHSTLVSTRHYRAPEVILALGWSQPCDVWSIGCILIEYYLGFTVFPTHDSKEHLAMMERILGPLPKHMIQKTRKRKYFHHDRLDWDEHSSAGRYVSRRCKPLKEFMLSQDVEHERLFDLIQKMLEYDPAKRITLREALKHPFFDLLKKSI
How it was run: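 Human GST-CLK1 (129-end, 3 ng) reacted with substrate and 10 μM ATP for 1 h at 25° C in 40 mM Tris-HCl pH 7.4, 20 mM MgCl2, 0.5 mg/mL BSA, 50 μM DTT. ADP-Glo luminescence was normalised to solvent control; IC50 (nM) from 3 data sets.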

MDA-MB-468 cell line = assay: Inhibition of proliferation of MDA-MB-468 cancer cells (Cell Titer-Glo); assay type: cell-based; conditions: Homo sapiens, MDA-MB-468, 72 hours
How it was run: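 Cells were grown in DMEM or RPMI, seeded at 2,000 cells/well and exposed to 11 threefold dilutions of compound (final 10 to 0.000169 μM) for 72 hours. Viability was read by Cell Titer-Glo luminescence after 10 min at room temperature, and GI50 was calculated from the luminescence data.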

human DYRK1A and tau = assay: Inhibition of tau phosphorylation, ClariCELL Kinase Cell-Based Assay, HEK 293 cells expressing human DYRK1A and tau; conditions: for inhibition at 1 µM: HEK293, read-out: % inhibition at 1 uM, tau phosphorylation, compound 1 uM; for inhibition at 0.25 µM / inhibition at 0.5 µM: HEK293, tau phosphorylation; for inhibition at 0.25 µM: compound 0.25 uM; for inhibition at 0.5 µM: compound 0.5 uM
How it was run: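 Cell-based service assay: HEK 293 cells transiently expressing human DYRK1A and tau were treated with compound and lysed. Released tau was plate-captured and its phosphorylation quantified by ELISA with a phospho-tau-specific antibody.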

| SMILES | IC50 (human GST-CLK1) [µM] | GI50 (MDA-MB-468 cell line) [nM] | inhibition at 1 µM (human DYRK1A and tau) [%] | inhibition at 0.25 µM (human DYRK1A and tau) [%] | inhibition at 0.5 µM (human DYRK1A and tau) [%] |
| --- | --- | --- | --- | --- | --- |
| COCCNc1nc(Nc2ccc(C(=O)N3CCC(N4CCOCC4)CC3)c3c2OCC3)nc2[nH]cc(C#N)c12 [Example 359, 4-((2-methoxy-ethyl)ami-no)-2-((4-(4-morpholino-piperidine-1-carbonyl)-2,3-dihydro-benzofuran-7-yl)amino)-7H-pyrrolo[2,3-d]pyrimidine-5-carbonitrile] | < 0.1 | 301 to 1000 | 55.9 | 23.4 | 42.8 |
| CCNc1nc(Nc2ccc(C(=O)N3CCC(N4C[C@@H]5C[C@H]4CO5)CC3)c3c2OCC3)nc2[nH]cc(C(F)(F)F)c12 [Example 468] | < 0.1 | 301 to 1000 | 92.5 | 50.3 | 75.4 |
| CCNc1nc(Nc2ccc(C(=O)N3CCN(C4COC4)CC3)c3c2OCCO3)nc2[nH]cc(C(F)(F)F)c12 [Example 400, (8-((4-(ethylamino)-5-(trifluoromethyl)-7H-pyrrolo[2,3-d]pyrimidin-2-yl)amino)-2,3-dihydrobenzo[b] [1,4]dioxin-5-yl) (4-(oxetan-3-yl)piperazin-1-yl)methanone] | < 0.1 | 301 to 1000 | 69.4 | 22.3 | 46.5 |
| CNc1nc(Nc2ccc(C(=O)N3CCN(C4COC4)CC3)c3c2OCCO3)nc2[nH]cc(C(F)(F)F)c12 [Example 397, (8-((4-(methylamino)-5-(trifluoromethyl)-7H-pyrrolo[2,3-d]pyrimidin-2-yl)amino)-2,3-dihydrobenzo[b] [1,4]dioxin-5-yl) (4-(oxetan-3-yl)piperazin-1-yl)methanone] | < 0.1 | 301 to 1000 | 52.8 | 12.9 | 41.1 |
| O=C(c1ccc(Nc2nc(C3CC3)c3c(C(F)(F)F)c[nH]c3n2)c2c1OCCO2)N1CCC(N2CCOCC2)CC1 [Example 228, (8-((4-cyclopropyl-5-(trifluoromethyl)-7H-pyrrolo[2,3-d]pyrimidin-2-yl)amino)-2,3-dihydrobenzo[b][1,4]dioxin-5-yl)(4-morpholinopiperidin-1-yl)methanone] | < 0.1 | 301 to 1000 | 49 | 9.3 | 24.7 |
| CNc1nc(Nc2ccc(C(=O)N3CCC(N4CCOCC4)CC3)c3c2OCC3)nc2[nH]cc(C(F)(F)F)c12 [Example 217, (7-((4-(methylamino)-5-(trifluoromethyl)-7H-pyrrolo[2,3-d]pyrimidin-2-yl)amino)-2,3-dihydrobenzofuran-4-yl)(4-morpholinopiperidin-1-yl)methanone] | < 0.1 | 301 to 1000 | 77.9 | 32 | 63.7 |
